# Measured values published in patent US10865191B2, “Heterocyclic compounds useful as modulators of TNF alpha” (BRISTOL-MYERS SQUIBB COMPANY, priority 2015, dated 2020).
# Molecular target: TNFα (Homo sapiens, UniProt P01375)
# Assay: TNF induced HEK-Blue assay (NF-kB-driven secreted alkaline phosphatase reporter)
# Type: cell-based
# Settings: TNF induced HEK-Blue assay IC50 value, TNFα 0.5 ng/mL, HEK-Blue-CD40L cells, 18 h
# Method in brief: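 HEK-Blue-CD40L cells (NF-kB-driven SEAP reporter), 20,000/well, added after 30 min pre-incubation of compound (0.004–25 μM final) with TNFα 0.5 ng/mL final at 37 °C; 18 h incubation. SEAP read with QUANTI-Blue at 620 nm; IC50 from 4-parameter logistic fit, normalized to unstimulated and stimulated DMSO controls.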
# Chain of TNFα (P01375 77-233 limits assumed): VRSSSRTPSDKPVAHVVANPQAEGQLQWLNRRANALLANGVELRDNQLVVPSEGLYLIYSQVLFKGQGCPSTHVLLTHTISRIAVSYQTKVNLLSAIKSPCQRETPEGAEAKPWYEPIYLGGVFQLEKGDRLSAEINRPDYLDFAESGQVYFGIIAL
row,Compound,IC50 [nM]
1,"Cc1nc2cc(F)c(-c3cnc(C(C)(C)O)nc3)nc2c(N[C@H](C)c2cc(C#N)ccc2F)c1Cl [Example 586, (R)-3-(1-((3-chloro-7-fluoro-6-(2-(2-hydroxypropan-2-yl)pyrimidin-5-yl)-2-methyl-1,5-naphthyridin-4-yl)amino)ethyl)-4-fluorobenzonitrile]",< 1000
2,"C[C@@H](Nc1c(Cl)cnc2ccc(-c3cnc(N4CCS(=O)(=O)CC4)nc3)cc12)c1ccccc1F [Example 225, (R)-4-(5-(3-chloro-4-((1-(2-fluorophenyl)ethyl)amino)quinolin-6-yl)pyrimidin-2-yl)thiomorpholine 1,1-dioxide]",< 1000

# The next lines start with the values.
row,IC50 [nM],Compound
1,10000 to 25000,"C[C@H](Nc1c(Cl)cnc2cnc(-c3cnc(C(C)(C)O)nc3)cc12)c1ccccc1F (single isomer, unassigned) [Example 234]"
2,< 1000,"CC(Nc1c(Cl)cnc2ccc(-c3cnc(C(C)(C)O)nc3)cc12)c1ccccc1F (racemic) [Example 152, 2-(5-(3-chloro-4-((1-(2-fluorophenyl)ethyl)amino)quinolin-6-yl)pyrimidin-2-yl)propan-2-ol]"

# Same assay, conditions: TNFα 0.5 ng/mL, HEK-Blue-CD40L cells, 18 h; read-out: TNF induced HEK-Blue assay IC50 value
row,Compound,IC50 [nM]
1,"Cc1ccc(C)c(Nc2c(F)c(C)nc3ccc(-c4cnc(C(C)(C)O)nc4)cc23)c1 [Example 183, 2-(5-(4-((2,5-dimethylphenyl)amino)-3-fluoro-2-methylquinolin-6-yl)pyrimidin-2-yl)propan-2-ol]",< 1000
2,"CCC(Nc1c(Cl)cnc2ccc(-c3cnc(C(C)(C)O)nc3)cc12)c1nc(C(N)=O)ccc1F (centres unmarked) [Example 129, 6-(1-((3-chloro-6-(2-(2-hydroxypropan-2-yl)pyrimidin-5-yl)quinolin-4-yl)amino)propyl)-5-fluoropicolinamide]",< 1000
3,"C[C@H](Nc1c(Cl)cnc2ccc(-c3cnc(C(C)(C)O)nc3)cc12)[C@H]1CCCN(c2cncnc2)C1 [Example 567, 2-(5-(3-chloro-4-(((S)-1-((S)-1-(pyrimidin-5-yl)piperidin-3-yl)ethyl)amino)quinolin-6-yl)pyrimidin-2-yl)propan-2-ol]",1000 to 10000
4,"CC(Nc1c(Cl)cnc2ccc(-c3cnc(C(C)(C)O)nc3)cc12)[C@H]1CCCN(CC(O)CO)C1 (stereo partly drawn) [Example 106, 3-((S)-3-((S)-1-((3-chloro-6-(2-(2-hydroxypropan-2-yl)pyrimidin-5-yl)quinolin-4-yl)amino)ethyl)piperidin-1-yl)propane-1,2-diol]",1000 to 10000
5,"CNC(=O)CN1CCN(c2ncc(-c3ccc4ncc(Cl)c(N[C@H](C)c5ccccc5F)c4c3)cn2)CC1 [Example 89, (R)-2-(4-(5-(3-chloro-4-((1-(2-fluorophenyl)ethyl)amino)quinolin-6-yl)pyrimidin-2-yl)piperazin-1-yl)-N-methylacetamide]",< 1000
6,"CC(Nc1c(Cl)cnc2ccc(-c3ccc(C(C)(C)O)cc3)cc12)c1ncccc1F (racemic) [Example 170, 2-(4-(3-chloro-4-((1-(3-fluoropyridin-2-yl)ethyl)amino)quinolin-6-yl)phenyl) propan-2-ol]",< 1000
7,"CC(=O)NC1CCC(O)(c2ncc(-c3ccc4ncc(Cl)c(N[C@H](C)c5ccccc5F)c4c3)cn2)CC1 (stereo partly drawn) [Example 131, (R)—N-(4-(5-(3-chloro-4-((1-(2-fluorophenyl)ethyl)amino)quinolin-6-yl)pyrimidin-2-yl)-4-hydroxycyclohexyl)acetamide]",1000 to 10000
8,"Cc1ccc(C)c(Nc2c(C)c(O)nc3ccc(-c4cnc(C(C)(C)O)nc4)cc23)c1 [Example 181, 4-((2,5-dimethylphenyl)amino)-6-(2-(2-hydroxypropan-2-yl)pyrimidin-5-yl)-3-methylquinolin-2-ol]",10000 to 25000
9,"CCNC(=O)c1ccc(F)c(C(C)Nc2c(Cl)cnc3ccc(-c4cnc(N5CCNC(=O)C5)nc4)cc23)n1 (racemic) [Example 39, 6-(1-((3-chloro-6-(2-(3-oxopiperazin-1-yl)pyrimidin-5-yl)quinolin-4-yl)amino)ethyl)-N-ethyl-5-fluoropicolinamide]",< 1000
10,"CC(Nc1c(Cl)cnc2cc(F)c(-c3ccc(C(O)CO)cc3)cc12)c1cc(C#N)ccc1F (mixture of isomers) [Example 599, 3-(1-((3-chloro-6-(4-(1,2-dihydroxyethyl)phenyl)-7-fluoroquinolin-4-yl)amino)ethyl)-4-fluorobenzonitrile]",< 1000
11,"C[C@@H](Nc1c(Cl)cnc2ccc(-c3ccc(N4CCN(CC(=O)O)C(=O)C4)nc3)cc12)c1ccccc1F [Example 81, (R)-2-(4-(5-(3-chloro-4-((1-(2-fluorophenyl)ethyl)amino)quinolin-6-yl)pyridin-2-yl)-2-oxopiperazin-1-yl)acetic acid]",1000 to 10000
12,"C[C@@H](Nc1c(Cl)cnc2ccc(-c3cnc(C(C)(C)O)nc3)cc12)c1cccc(Br)c1 [Example 319, (R)-2-(5-(4-((1-(3-bromophenyl)ethyl)amino)-3-chloroquinolin-6-yl)pyrimidin-2-yl)propan-2-ol]",< 1000
13,"CC(Nc1c(Cl)cnc2ccc(-c3ccc(C(C)(C)O)cc3)cc12)c1cnccn1 (racemic) [Example 198, 2-(4-(3-chloro-4-((1-(pyrazin-2-yl)ethyl)amino)quinolin-6-yl)phenyl)propan-2-ol]",< 1000
14,"C[C@@H](Nc1c(Cl)cnc2ccccc12)c1cc(-c2ccc(N)nc2)ccc1F [Example 478, (R)—N-(1-(5-(6-aminopyridin-3-yl)-2-fluorophenyl)ethyl)-3-chloroquinolin-4-amine]",< 1000
15,"Cc1nc2ccc(-c3cnc(C(C)(C)O)nc3)cc2c(N[C@@H](c2cc(N3CCNC3=O)ccc2F)C(F)F)c1Cl [Example 372, (S)-1-(3-(1-((3-chloro-6-(2-(2-hydroxypropan-2-yl)pyrimidin-5-yl)-2-methylquinolin-4-yl)amino)-2,2-difluoroethyl)-4-fluorophenyl) imidazolidin-2-one]",< 1000
16,"Cc1ccc(C)c(Nc2c(Cl)c(C(=O)Nc3cccnc3)nc3ccc(-c4ccc(C#N)nc4)cc23)c1 [Example 32, 3-chloro-6-(6-cyanopyridin-3-yl)-4-((2,5-dimethylphenyl)amino)-N-(pyridin-3-yl)quinoline-2-carboxamide]",< 1000
17,"Cc1nc2cc(F)c(-c3cnc(C(C)(C)O)nc3)cc2c(N[C@H](C)c2cc(OCCO)ccc2F)c1Cl [Example 324, (R)-2-(5-(3-chloro-7-fluoro-4-((1-(2-fluoro-5-(2-hydroxyethoxy)phenyl)ethyl)amino)-2-methylquinolin-6-yl)pyrimidin-2-yl)propan-2-ol]",< 1000
18,"C=Cc1ccc(F)c([C@H](Nc2c(Cl)c(C)nc3ccc(-c4cnc(C(C)(C)O)nc4)cc23)C(F)F)c1 [Example 352, (S)-2-(5-(3-chloro-4-((2,2-difluoro-1-(2-fluoro-5-vinylphenyl)ethyl)amino)-2-methylquinolin-6-yl)pyrimidin-2-yl)propan-2-ol]",< 1000
19,"C[C@@H](Nc1c(Cl)cnc2ccc(-c3ccc(C(N)CO)cc3)cc12)c1ccccc1F (stereo partly drawn) [Example 100, 2-amino-2-(4-(3-chloro-4-(((R)-1-(2-fluorophenyl)ethyl)amino)quinolin-6-yl)phenyl)ethan-1-ol]",1000 to 10000

# Second part, the molecule after the results:
row,IC50 [nM],Compound
1,< 1000,"CC(C)(O)c1ncc(-c2ccc3ncc(Cl)c(NC(CC(F)(F)F)c4ccccc4F)c3c2)cn1 (racemic) [Example 169, 2-(5-(3-chloro-4-((3,3,3-trifluoro-1-(2-fluorophenyl)propyl)amino)quinolin-6-yl)pyrimidin-2-yl)propan-2-ol]"
2,< 1000,"C[C@@H](Nc1c(Cl)cnc2cc(F)c(-c3cnc(C4CCN(CC(=O)O)CC4)nc3)cc12)c1ccccc1F [Example 594, (R)-2-(4-(5-(3-chloro-7-fluoro-4-((1-(2-fluorophenyl)ethyl)amino)quinolin-6-yl)pyrimidin-2-yl)piperidin-1-yl)acetic acid]"
3,< 1000,"C=Cc1ccc(F)c([C@@H](C)Nc2c(Cl)cnc3cc(F)c(-c4cnc(C(C)(C)O)nc4)nc23)c1 [Example 188, (R)-2-(5-(7-chloro-3-fluoro-8-((1-(2-fluoro-5-vinylphenyl)ethyl)amino)-1,5-naphthyridin-2-yl)pyrimidin-2-yl)propan-2-ol]"
4,< 1000,"CC(Nc1c(Cl)cnc2cc(F)c(-c3cnc(C(C)(C)O)cn3)cc12)c1ccccc1F (racemic) [Example 294, 2-(5-(3-chloro-7-fluoro-4-((1-(2-fluorophenyl)ethyl)amino)quinolin-6-yl)pyrazin-2-yl)propan-2-ol]"
5,< 1000,"C[C@@H](Nc1c(Cl)cnc2ccc(-c3cnc(C(C)(C)O)nc3)cc12)c1cc(CO)ccc1F [Example 430, (R)-2-(5-(3-chloro-4-((1-(2-fluoro-5-(hydroxymethyl)phenyl)ethyl)amino)quinolin-6-yl)pyrimidin-2-yl)propan-2-ol]"
6,< 1000,"C[C@@H](Nc1c(Cl)cnc2ccc(-c3cnc(C(C)(C)O)nc3)cc12)c1cc(C2NC(=O)NC2=O)ccc1F (single isomer, unassigned) [Example 423]"
7,1000 to 10000,"CC(Nc1c(Cl)cnc2c(Cl)cc(-c3ccc(C(C)(C)O)cc3)cc12)c1ccccc1F (racemic) [Example 21, 2-(4-(3,8-dichloro-4-((1-(2-fluorophenyl)ethyl)amino)quinolin-6-yl)phenyl)propan-2-ol]"
8,< 1000,"C[C@@H](Nc1c(Cl)cnc2ccc(-c3cnc(C(C)(C)O)nc3)cc12)c1cc(-c2cncs2)ccc1F [Example 347, (R)-2-(5-(3-chloro-4-((1-(2-fluoro-5-(thiazol-5-yl)phenyl)ethyl)amino)quinolin-6-yl)pyrimidin-2-yl)propan-2-ol]"
9,< 1000,"COC(=O)C1CCN(c2ncc(-c3cc4c(N[C@H](C)c5ccccc5F)c(Cl)cnc4cc3F)cn2)C1 (mixture of isomers) [Example 281, methyl 1-(5-(3-chloro-7-fluoro-4-(((R)-1-(2-fluorophenyl)ethyl)amino)quinolin-6-yl)pyrimidin-2-yl)pyrrolidine-3-carboxylate]"
